Experiments:
BRG1 = molecular target: T1, BRG1 (Homo sapiens, UniProt P51532); test: Immunofluorescence assay for BRG1 degradation in SW1573 cells; assay type: cell-based; conditions: 20 hours incubation; for DC50: immunofluorescence mean nuclear signal, read-out: BRG1 IF Degradation IC50; for Dmax: SW1573, 20 h, normalized to a known degrader control, read-out: BRG1 IF Degradation Sinf (%)
T1 construct: either BRM primary antibody (Cell signaling Cat #11966) or BRG primary antibody (Abcam, ab 110641); endogenous in cells; host or cells: SW1573
T1 sequence (P51532 whole entry): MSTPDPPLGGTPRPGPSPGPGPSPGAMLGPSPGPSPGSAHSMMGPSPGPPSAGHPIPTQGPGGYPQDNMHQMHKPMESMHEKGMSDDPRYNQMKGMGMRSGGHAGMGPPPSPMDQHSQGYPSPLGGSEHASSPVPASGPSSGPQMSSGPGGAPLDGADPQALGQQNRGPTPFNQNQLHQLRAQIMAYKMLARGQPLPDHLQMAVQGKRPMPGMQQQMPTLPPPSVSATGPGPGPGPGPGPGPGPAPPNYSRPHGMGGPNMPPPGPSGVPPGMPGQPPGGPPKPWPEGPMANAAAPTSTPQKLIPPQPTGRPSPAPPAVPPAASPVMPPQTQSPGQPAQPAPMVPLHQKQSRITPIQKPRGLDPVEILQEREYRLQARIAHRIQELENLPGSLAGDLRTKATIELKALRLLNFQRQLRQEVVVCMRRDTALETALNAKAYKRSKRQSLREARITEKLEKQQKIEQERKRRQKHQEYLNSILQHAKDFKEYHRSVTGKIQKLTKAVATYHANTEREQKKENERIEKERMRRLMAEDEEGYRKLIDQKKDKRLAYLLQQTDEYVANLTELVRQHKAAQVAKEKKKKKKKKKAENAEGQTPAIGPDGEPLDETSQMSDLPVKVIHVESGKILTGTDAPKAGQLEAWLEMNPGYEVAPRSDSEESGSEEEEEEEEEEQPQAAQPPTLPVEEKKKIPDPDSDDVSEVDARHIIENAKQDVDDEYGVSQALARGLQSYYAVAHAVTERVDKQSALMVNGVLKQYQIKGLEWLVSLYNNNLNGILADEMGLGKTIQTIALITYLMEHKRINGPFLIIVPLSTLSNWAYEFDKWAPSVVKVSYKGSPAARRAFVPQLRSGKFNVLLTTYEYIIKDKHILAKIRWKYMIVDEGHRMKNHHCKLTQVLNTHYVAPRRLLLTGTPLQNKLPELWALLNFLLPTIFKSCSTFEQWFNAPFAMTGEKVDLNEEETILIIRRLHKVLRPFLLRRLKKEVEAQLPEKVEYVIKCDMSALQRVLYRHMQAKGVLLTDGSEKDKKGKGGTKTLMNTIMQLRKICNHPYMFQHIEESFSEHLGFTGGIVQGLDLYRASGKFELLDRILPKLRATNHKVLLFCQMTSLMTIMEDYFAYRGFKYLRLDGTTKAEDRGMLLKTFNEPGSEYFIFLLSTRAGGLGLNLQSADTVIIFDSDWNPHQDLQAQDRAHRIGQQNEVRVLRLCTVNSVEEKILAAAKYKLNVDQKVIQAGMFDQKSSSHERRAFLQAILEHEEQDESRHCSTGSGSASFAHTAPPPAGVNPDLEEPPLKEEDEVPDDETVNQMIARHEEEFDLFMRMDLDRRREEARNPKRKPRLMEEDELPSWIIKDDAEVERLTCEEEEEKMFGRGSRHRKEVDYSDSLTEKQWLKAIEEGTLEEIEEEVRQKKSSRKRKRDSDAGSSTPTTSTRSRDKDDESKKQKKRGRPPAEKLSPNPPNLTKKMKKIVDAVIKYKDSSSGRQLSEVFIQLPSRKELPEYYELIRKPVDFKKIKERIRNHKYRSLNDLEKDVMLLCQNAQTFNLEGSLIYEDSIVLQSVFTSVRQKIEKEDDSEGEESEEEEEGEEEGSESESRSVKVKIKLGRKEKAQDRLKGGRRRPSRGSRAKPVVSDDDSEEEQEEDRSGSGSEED
Outline: (§1)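 SW1573 cells treated with compound for 20 h, then fixed, permeabilized and immunostained for BRM or BRG1 with Hoechst nuclear counterstain. Mean nuclear intensity per cell quantified by high-content imaging; data normalized to a reference degrader control, with floating-maximum curve fits giving IC50 and Dmax.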

BRM = BRM (Homo sapiens, UniProt P51531); test: Immunofluorescence assay for BRM degradation in SW1573 cells; assay type: cell-based; set-up: treated overnight at 4° C. with either BRM primary antibody (Cell signaling Cat #11966) or BRG primary antibody; endogenous in cells; host or cells: SW1573; conditions: 20 hours incubation; for DC50: immunofluorescence mean nuclear signal, read-out: BRM IF Degradation IC50; for BRM IF Degradation Sinf (%): normalized to a known degrader control
Sequence of BRM (P51531 whole entry): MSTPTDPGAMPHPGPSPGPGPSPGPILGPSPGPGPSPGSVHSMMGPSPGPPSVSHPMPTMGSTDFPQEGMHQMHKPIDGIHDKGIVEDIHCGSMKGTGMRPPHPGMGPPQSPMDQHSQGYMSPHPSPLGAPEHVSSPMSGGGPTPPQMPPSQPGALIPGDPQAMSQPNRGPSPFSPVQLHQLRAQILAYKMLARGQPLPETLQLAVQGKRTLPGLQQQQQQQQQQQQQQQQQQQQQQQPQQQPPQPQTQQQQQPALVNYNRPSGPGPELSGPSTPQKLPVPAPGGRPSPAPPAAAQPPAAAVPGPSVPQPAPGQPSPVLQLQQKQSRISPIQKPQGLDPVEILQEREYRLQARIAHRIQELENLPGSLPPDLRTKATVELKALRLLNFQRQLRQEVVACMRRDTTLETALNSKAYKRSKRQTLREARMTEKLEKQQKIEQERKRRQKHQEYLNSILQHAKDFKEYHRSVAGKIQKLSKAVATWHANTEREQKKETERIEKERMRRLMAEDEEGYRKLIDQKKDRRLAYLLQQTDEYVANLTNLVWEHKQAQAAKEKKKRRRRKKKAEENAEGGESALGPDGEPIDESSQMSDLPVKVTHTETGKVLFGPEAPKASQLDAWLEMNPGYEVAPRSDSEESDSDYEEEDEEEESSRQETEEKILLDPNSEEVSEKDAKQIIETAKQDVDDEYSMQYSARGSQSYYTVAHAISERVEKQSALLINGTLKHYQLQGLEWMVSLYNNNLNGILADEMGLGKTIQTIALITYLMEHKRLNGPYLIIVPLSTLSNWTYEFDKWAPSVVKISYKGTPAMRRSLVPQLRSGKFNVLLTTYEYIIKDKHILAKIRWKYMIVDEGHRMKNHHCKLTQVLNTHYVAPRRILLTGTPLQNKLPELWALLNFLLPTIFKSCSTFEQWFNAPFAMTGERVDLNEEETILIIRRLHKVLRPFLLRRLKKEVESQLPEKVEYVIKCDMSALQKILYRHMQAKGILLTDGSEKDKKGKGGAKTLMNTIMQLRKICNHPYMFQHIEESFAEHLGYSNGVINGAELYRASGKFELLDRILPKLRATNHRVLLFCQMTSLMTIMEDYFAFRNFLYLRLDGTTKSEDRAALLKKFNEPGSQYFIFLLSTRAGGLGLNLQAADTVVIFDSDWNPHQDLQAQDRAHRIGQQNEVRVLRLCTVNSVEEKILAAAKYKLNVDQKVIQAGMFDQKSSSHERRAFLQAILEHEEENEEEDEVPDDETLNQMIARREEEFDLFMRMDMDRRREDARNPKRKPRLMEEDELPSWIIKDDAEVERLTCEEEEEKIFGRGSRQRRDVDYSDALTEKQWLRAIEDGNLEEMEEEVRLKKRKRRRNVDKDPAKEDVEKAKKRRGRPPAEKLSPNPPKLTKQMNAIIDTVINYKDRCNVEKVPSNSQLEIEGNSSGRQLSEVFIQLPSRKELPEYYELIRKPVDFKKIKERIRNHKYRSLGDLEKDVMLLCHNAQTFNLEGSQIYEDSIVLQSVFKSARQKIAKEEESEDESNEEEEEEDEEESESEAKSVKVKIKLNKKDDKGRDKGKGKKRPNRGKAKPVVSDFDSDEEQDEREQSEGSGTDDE
Outline: as §1

SMILES | DC50 (BRG1) | Dmax (BRG1) | DC50 (BRM) | BRM IF Degradation Sinf (%) (BRM)
Nc1nnc(-c2ccccc2O)cc1N1CC2CCC(C1)N2c1ccnc(C#CCN2CCOC3CCNCC32)c1 (stereo not drawn) [Compound 147, 2-[5-[8-[2-[3-(2,3,4a,5,6,7,8,8a-octahydropyrido[4,3-b][l,4]oxazin-4-yl)prop-1-ynyl]-4-pyridyl]-3,8-diazabicyclo[3.2.1]octan-3-yl]-6-amino-pyridazin-3-yl]phenol] | > 100 nM | 30 to 70% | > 100 nM | E (E indicates −30%-−70%)
CNC(=O)C12CC(CN1CC#Cc1cc(N3C4CCC3CN(c3cc(-c5ccccc5O)nnc3N)C4)ccn1)C2 [Compound 148, 2-[3-[4-[3-[3-amino-6-(2-hydroxyphenyl)pyridazin-4-yl]-3,8-diazabicyclo[3.2.1]octan-8-yl]-2-pyridyl]prop-2-ynyl]-N-methyl-2-azabicyclo[2.1.1]hexane-1-carboxamide] | > 100 nM | 30 to 70% | 10 to 100 nM | E (E indicates −30%-−70%)
Nc1nnc(-c2ccccc2O)cc1N1CC2CCC(C1)N2c1ccnc(C#CCN2Cc3cn[nH]c3C2)c1 [Compound 149, 2-[6-amino-5-[8-[2-[3-(4,6-dihydro-1H-pyrrolo[3,4-c]pyrazol-5-yl)prop-1-ynyl]-4-pyridyl]-3,8-diazabicyclo[3.2.1]octan-3-yl]pyridazin-3-yl]phenol] | 10 to 100 nM | 0 to 30% | 10 to 100 nM | E (E indicates −30%-−70%)
Nc1nnc(-c2ccccc2O)cc1N1CC2CCC(C1)N2c1ccnc(C#CCN2CC(C3CC3)C2)c1 [Compound 150, 2-[6-amino-5-[8-[2-[3-(3-cyclopropylazetidin-1-yl)prop-1-ynyl]-4-pyridyl]-3,8-diazabicyclo[3.2.1]octan-3-yl]pyridazin-3-yl]phenol] | < 10 nM | 30 to 70% | < 10 nM | F (F indicates −71%-−120%)
Nc1nnc(-c2ccccc2O)cc1N1CC2CCC(C1)N2c1ccnc(C#CCN2CC3(C2)CC3(F)F)c1 [Compound 151, 2-[6-amino-5-[8-[2-[3-(2,2-difluoro-5-azaspiro[2.3]hexan-5-yl)prop-1-ynyl]-4-pyridyl]-3,8-diazabicyclo[3.2.1]octan-3-yl]pyridazin-3-yl]phenol] | < 10 nM | 0 to 30% | < 10 nM | E (E indicates −30%-−70%)
N#CCC1CN(CC#Cc2cc(N3C4CCC3CN(c3cc(-c5ccccc5O)nnc3N)C4)ccn2)C1 [Compound 152, 2-[1-[3-[4-[3-[3-amino-6-(2-hydroxyphenyl)pyridazin-4-yl]-3,8-diazabicyclo[3.2.1]octan-8-yl]-2-pyridyl]prop-2-ynyl]azetidin-3-yl]acetonitrile] | < 10 nM | 30 to 70% | < 10 nM | E (E indicates −30%-−70%)
Nc1nnc(-c2ccccc2O)cc1N1CC2CCC(C1)N2c1ccnc(C#CCN2CCCCC23CC3)c1 [Compound 153, 2-[6-amino-5-[8-[2-[3-(4-azaspiro[2.5]octan-4-yl)prop-1-ynyl]-4-pyridyl]-3,8-diazabicyclo[3.2.1]octan-3-yl]pyridazin-3-yl]phenol] | < 10 nM | 0 to 30% | < 10 nM | E (E indicates −30%-−70%)
Nc1nnc(-c2ccccc2O)cc1N1CC2CCC(C1)N2c1ccnc(C#CCN2CC(O)(C3CC3)C2)c1 [Compound 154, 1-[3-[4-[3-[3-amino-6-(2-hydroxyphenyl)pyridazin-4-yl]-3,8-diazabicyclo[3.2.1]octan-8-yl]-2-pyridyl]prop-2-ynyl]-3-cyclopropyl-azetidin-3-ol] | < 10 nM | 30 to 70% | < 10 nM | F (F indicates −71%-−120%)
Nc1nnc(-c2ccccc2O)cc1N1CC2CCC(C1)N2c1ccnc(C#CCN2CC3(CCCC3)C2)c1 [Compound 155, 2-[6-amino-5-[8-[2-[3-(2-azaspiro[3.4]octan-2-yl)prop-1-ynyl]-4-pyridyl]-3,8-diazabicyclo[3.2.1]octan-3-yl]pyridazin-3-yl]phenol] | < 10 nM | 30 to 70% | < 10 nM | E (E indicates −30%-−70%)
CN1CC2(CCN(CC#Cc3cc(N4C5CCC4CN(c4cc(-c6ccccc6O)nnc4N)C5)ccn3)C2)C1 [Compound 156, 2-[6-amino-5-[8-[2-[3-(2-methyl-2,6-diazaspiro[3.4]octan-6-yl)prop-1-ynyl]-4-pyridyl]-3,8-diazabicyclo[3.2.1]octan-3-yl]pyridazin-3-yl]phenol] | > 100 nM | 30 to 70% | > 100 nM | E (E indicates −30%-−70%)
Nc1nnc(-c2ccccc2O)cc1N1CC2CCC(C1)N2c1ccnc(C#CCN2CC(C3CCOC3)C2)c1 (stereo not drawn) [Compound 157, 2-[6-amino-5-[8-[2-[3-(3-tetrahydrofuran-3-ylazetidin-1-yl)prop-1-ynyl]-4-pyridyl]-3,8-diazabicyclo[3.2.1]octan-3-yl]pyridazin-3-yl]phenol] | 10 to 100 nM | 30 to 70% | 10 to 100 nM | E (E indicates −30%-−70%)
Nc1nnc(-c2ccccc2O)cc1N1CC2CCC(C1)N2c1ccnc(C#CCN2CC(CC(F)F)C2)c1 [Compound 158, 2-[6-amino-5-[8-[2-[3-[3-(2,2-difluoroethyl)azetidin-1-yl]prop-1-ynyl]-4-pyridyl]-3,8-diazabicyclo[3.2.1]octan-3-yl]pyridazin-3-yl]phenol] | < 10 nM | 30 to 70% | < 10 nM | F (F indicates −71%-−120%)
Nc1nnc(-c2ccccc2O)cc1N1CC2CCC(C1)N2c1ccnc(C#CCN2CCC23CCOCC3)c1 [Compound 159, 2-[6-amino-5-[8-[2-[3-(7-oxa-1-azaspiro[3.5]nonan-1-yl)prop-1-ynyl]-4-pyridyl]-3,8-diazabicyclo[3.2.1]octan-3-yl]pyridazin-3-yl]phenol] | < 10 nM | 30 to 70% | < 10 nM | E (E indicates −30%-−70%)
Nc1nnc(-c2ccccc2O)cc1N1CC2CCC(C1)N2c1ccnc(C#CCN2CC3(COCCO3)C2)c1 [Compound 160, 2-[6-amino-5-[8-[2-[3-(5,8-dioxa-2-azaspiro[3.5]nonan-2-yl)prop-1-ynyl]-4-pyridyl]-3,8-diazabicyclo[3.2.1]octan-3-yl]pyridazin-3-yl]phenol] | 10 to 100 nM | 0 to 30% | 10 to 100 nM | E (E indicates −30%-−70%)
Nc1nnc(-c2ccccc2O)cc1N1CC2CCC(C1)N2c1ccnc(C#CCN2C[C@H]3OCC[C@H]32)c1 [Compound 161, 2-[6-amino-5-[8-[2-[3-[(1R,5R)-2-oxa-6-azabicyclo[3.2.0]heptan-6-yl]prop-1-ynyl]-4-pyridyl]-3,8-diazabicyclo[3.2.1]octan-3-yl]pyridazin-3-yl]phenol] | 10 to 100 nM | 30 to 70% | < 10 nM | E (E indicates −30%-−70%)
Nc1nnc(-c2ccccc2O)cc1N1CC2CCC(C1)N2c1ccnc(C#CCN2CC3CCCC32)c1 (stereo not drawn) [Compound 162, 2-(5-(8-(2-(3-(6-azabicyclo[3.2.0]heptan-6-yl)prop-1-yn-1-yl)pyridin-4-yl)-3,8-diazabicyclo[3.2.1]octan-3-yl)-6-aminopyridazin-3-yl)phenol] | < 10 nM | 30 to 70% | < 10 nM | F (F indicates −71%-−120%)
CNC(=O)[C@@H]1CCCN1CC#Cc1cc(N2C3CCC2CN(c2cc(-c4ccccc4O)nnc2N)C3)ccn1 [Compound 163, (2S)-1-[3-[4-[3-[3-amino-6-(2-hydroxyphenyl)pyridazin-4-yl]-3,8-diazabicyclo[3.2.1]octan-8-yl]-2-pyridyl]prop-2-ynyl]-N-methyl-pyrrolidine-2-carboxamide] | > 100 nM | 30 to 70% | 10 to 100 nM | E (E indicates −30%-−70%)
CN1C[C@@H]2C[C@H]1CN2CC#Cc1cc(N2C3CCC2CN(c2cc(-c4ccccc4O)nnc2N)C3)ccn1 [Compound 164, 2-[6-amino-5-[8-[2-[3-[(1S,4S)-5-methyl-2,5-diazabicyclo[2.2.1]heptan-2-yl]prop-1-ynyl]-4-pyridyl]-3,8-diazabicyclo[3.2.1]octan-3-yl]pyridazin-3-yl]phenol] | > 100 nM | 0 to 30% | 10 to 100 nM | E (E indicates −30%-−70%)
Nc1nnc(-c2ccccc2O)cc1N1CC2CCC(C1)N2c1ccnc(C#CCN2CCC[C@]23CCNC3)c1 [Compound 165, 2-[6-amino-5-[8-[2-[3-[(5R)-1,7-diazaspiro[4.4]nonan-1-yl]prop-1-ynyl]-4-pyridyl]-3,8-diazabicyclo[3.2.1]octan-3-yl]pyridazin-3-yl]phenol] | > 100 nM |  | > 100 nM | E (E indicates −30%-−70%)
Nc1nnc(-c2ccccc2O)cc1N1CC2CCC(C1)N2c1ccnc(C#CCN2CCCCC2)c1 [Compound 166, 2-(6-amino-5-(8-(2-(3-(piperidin-1-yl)prop-1-yn-1-yl)pyridin-4-yl)-3,8-diazabicyclo[3.2.1]octan-3-yl)pyridazin-3-yl)phenol] | > 100 nM |  | < 10 nM | E (E indicates −30%-−70%)

Source: US11993599B2, “Therapeutic compounds” (Genentech, Inc., priority 2021, dated 2024)
